Values joined by “and” are separate entries in the source; they are usually repeats but may differ in a detail not shown here. Identical values can stand only once.

Data set [1] has as its system NRF2. Nature of the data set: ARE-driven luciferase reporter assay (NRF2 activity) in HaCaT/ARE stable cells. The format is cell-based, human. The text has this: In this study, we used a stable ARE-driven reporter system to screen the potential NRF2 activators.
A general note: In a reporter assay the amount or activity of a reporter protein is the signal.

For a further data set, the system named is HaCaT cells. The data set can be described thus: Cytotoxicity, 72 h resazurin cell viability assay. The format is cell-based, human. Conditions: HaCaT cells, 72 h; read-out: CC50. As to the method: Cells were seeded in a 96-well plate contained 100 μL culture medium in triplicate and treated with several compounds for 72 h. At the assay time point, resazurin (Cayman Chemical) was added and further incubated for 4 h at 37 °C. Fluorescence of the reduced resazurin was measured as described previously.
Figure 3 The cytotoxicity of 12b, 13b, and 14b in HaCaT cells. HaCaT cells were treated with indicated concentrations of these three compounds for 72 h. Cell viability was determined by a resazurin assay as described in the Materials and Methods section. Data presented as mean ± SD from three independent experiments.

The subject of data set [2] is NRF2 target genes (HO1, G6PD, GCLC). The data set can be described thus: qRT-PCR of NRF2 target genes in HaCaT cells. The format is cell-based, human. Conditions: 18 h, real-time PCR. Here is the method: (§1) To further evaluate the effect of compound 13b on NRF2 activation, the mRNA level of NRF2 target genes were determined by real-time PCR.
(§2) RNA was prepared by using the TRIzol Reagent (Thermo Scientific, Madison, WI, USA) and was reverse transcribed into cDNA using a TOOLs Easy Fast RT Kit (TOOLs Biotechnology, New Taipei City, Taiwan). PCR was performed on an ABI StepOne Plus System (Applied Biosystems, Foster City, CA, USA) using the KAPA SYBR® FAST qPCR Master Mix (2X) Kit (Sigma-Aldrich, St. Louis, MO, USA). The mRNA level was normalized using the glyceraldehyde 3-phosphate dehydrogenase (GAPDH) mRNA level as the standard. The following primers were used: NRF2 forward: 5′-[…] and reverse: 5′-[…]; HO1 forward: 5′-GCCAGCAACAAAGTGCAAG and reverse: 5′-[…]; NQO1 forward: 5′-[…] and reverse: 5′-[…]; GCLC forward: 5′-[…] and reverse: 5′-[…]; G6PD forward: 5′-CAACATCGCCTGCGTTA and reverse: 5′-CTTGACCTTCTCATCACGG; and GAPDH forward: 5′-[…] and reverse: 5′-[…].
Figure 4 Compound 13b increased the expression of NRF2 target genes in the HaCaT cell. HaCaT cells were treated with indicated concentrations of 13b for 18 h. Total RNA was isolated and submitted to reverse transcription and real-time PCR for the detection of the NRF2 target genes including HO1 (A), GLCL (B), G6PD (C), and NQO1 (D). Data are expressed as normalized mRNA level and presented as mean ± SD from three independent experiments. The asterisk (*) indicates a significant difference between 13b treated groups and control group (* p< 0.05, *** p< 0.001, one-way ANOVA).
Background: Real-time PCR tracks product formation cycle by cycle.

Data set [3] concerns NRF2. The data set can be described thus: Western blot of NRF2 protein in HaCaT cells. Conditions: 8 h. It counts as cell-based, human. As to the method:
as §1
Cells were washed with PBS and harvested with RIPA lysis buffer (50 mM Tris (pH 7.5), 150 mM NaCl, 1% Tx-100) supplemented with protease and phosphatase inhibitors (1 mM PMSF, 10 μg/mL leupeptin, 50 μg/mL TLCK, 50 μg/mL TPCK, 1 μg/mL aprotinin, 1 mM NaF, 5 mM NaPPi, and 10 mM Na3VO4). The cell lysates were cleared via 10 min spins at 13,000 rpm, 4 °C. Protein concentrations were determined by a Bio-Rad Protein Assay (Bio-Rad, Hercules, CA, USA). Samples corresponded to 20 μg of protein were used for Western blot according to our previous publication. The following antibodies were used: anti-NRF2 (GeneTex, Irvine, CA, USA) and anti-GAPDH (Abcam, Cambridge, MA, USA).
(§3) Figure 5 The compound 13b increased the NRF2 expression at the protein level in the HaCaT cell. (A) HaCaT cells were treated with indicated concentrations of compound 13b for 8 h. Protein expression of NRF2 was determined by Western blot. (B) HaCaT cells were treated with indicated concentrations of 13b for 18 h. Total RNA was isolated and submitted to reverse transcription and real-time PCR for the detection of the NRF2 mRNA level.
A general note: A western blot detects proteins with antibodies after separation by electrophoresis.

In another data set the test system is NRF2 mRNA. Nature of the data set: qRT-PCR of NRF2 mRNA in HaCaT cells. The format is cell-based, human. Conditions: 18 h, real-time PCR. As to the method:
as §1, §2, §3

A further data set relates to HaCaT/ARE cells. The data set can be described thus: Cell viability (resazurin) in the reporter screen.

Method for HaCaT/ARE cells: Immortalized human keratinocytes HaCaT were cultured in the Dulbecco’s modified Eagle’s medium (DMEM; Gibco BRL, Grand Island, NY, USA) with 10% heat-inactivated fetal bovine serum (HyClone, Logan, UT, USA), penicillin (100 U/mL), and streptomycin (100 μg/mL) in a humidified incubator with 5% CO2. HaCaT/ARE stable cells were grown in DMEM supplemented with 100 μg/mL of hygromycin.
HaCaT/ARE stable cells were seeded (1 × 10^4 cells/well) in a 96 well plate, then were treated with indicated concentrations of compounds for 18 h. At the assay time point, resazurin (Cayman Chemical, Ann Arbor, MI, USA) was added to a final concentration of 0.1 mg/mL and further incubated for 4 h at 37 °C. Fluorescence of the reduced resazurin (ex/em: 530 nm/590 nm) was measured from the culture supernatant by using a Synergy HT Multi-Mode Reader (BioTek, Winooski, VT, USA) to determine cell viability. The cells were then harvested for luciferase activity measurements according to the manufacturer’s protocol (Promega Corporation, Madison, WI, USA). Relative luciferase activity was calculated by normalizing luciferase activity to cell viability, and DMSO solvent control was used as 100% activity.

What is called EC50 is the concentration at which the effect is half-maximal. As usually defined, the CC50 is the concentration that lowers cell viability or growth by half. In the case of “(E)-3-{4-[(4-acetylphenyl)amino]quinolin-2-yl}-1-(4-fluorophenyl)prop-2-en-1-one [13b]”, the “% of Relative NRF2 Activity in HaCaT Cell” value in the data set on NRF2 [1] (10 μM, 24 h (b12; method b59 says 18 h), luciferase normalised to cell viability, DMSO control = 100%) was 2205% and 2205.2 ± 144.9%. Also, the half-maximal effective concentration (EC50) with NRF2 [1] (HaCaT/ARE cells, 18 h, dose-response, read-out: EC50 of NRF2 promoter activity) amounted to 1950 nM. Moreover, the CC50 with HaCaT cells was greater than 100000 nM. Also, in data set [2], the “G6PD mRNA expression” value is “significantly increased”, the “GCLC mRNA expression” value is “significantly increased” and the “HO1 mRNA expression” value is given as “significantly increased”. Also, the “expression of NRF2 protein” value with NRF2 [3] is “effectively enhance”. For the same substance, the “mRNA of NRF2” value with NRF2 mRNA is given as “without altering”. Further, the survival rate with HaCaT/ARE cells (10 µM) was determined as 96%. Also, in the data set with HaCaT/ARE cells (10 μM, in % (unit assumed)), the “Cell Viability” value stood at 95.7 ± 1.8.
